Laboratory results reported in PMC8083904 (ACS infectious diseases, 2020).

Columns and labels:
MEZ (Mtb malic enzyme) [1] = target: T1, MEZ (Mtb malic enzyme) (Mycobacterium tuberculosis, UniProt P9WK25)
MEZ (Mtb malic enzyme) [2] = target: T1, MEZ (Mtb malic enzyme); conditions: read-out: Km or K0.5
MEZ (Mtb malic enzyme) [3] = target: T1, MEZ (Mtb malic enzyme); remark: listed apart in the source

T1 sequence (P9WK25 whole entry): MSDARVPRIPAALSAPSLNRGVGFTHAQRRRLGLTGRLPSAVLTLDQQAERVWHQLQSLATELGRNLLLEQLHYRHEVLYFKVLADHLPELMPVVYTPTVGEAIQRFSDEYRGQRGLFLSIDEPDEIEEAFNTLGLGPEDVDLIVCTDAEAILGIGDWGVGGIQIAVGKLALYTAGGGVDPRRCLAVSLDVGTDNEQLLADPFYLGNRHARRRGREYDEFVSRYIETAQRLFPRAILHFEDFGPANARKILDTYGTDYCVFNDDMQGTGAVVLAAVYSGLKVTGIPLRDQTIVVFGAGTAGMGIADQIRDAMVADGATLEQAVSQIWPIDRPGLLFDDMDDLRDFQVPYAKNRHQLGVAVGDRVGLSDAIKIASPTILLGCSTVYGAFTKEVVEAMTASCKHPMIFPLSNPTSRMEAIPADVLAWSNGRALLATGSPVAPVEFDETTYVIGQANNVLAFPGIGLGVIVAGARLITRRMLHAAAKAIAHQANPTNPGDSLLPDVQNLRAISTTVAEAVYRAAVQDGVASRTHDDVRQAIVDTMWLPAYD

SMILES | % activity of unmodified control (activation) (MEZ (Mtb malic enzyme) [1]) | other results
N[C@@H](CC(=O)O)C(=O)O [aspartate] | aspartate induced a smaller increase in activity, Figure 3A | –
O=C(O)CCC(=O)O [succinate] | 290% | –
O=C(O)C[C@H](O)C(=O)O [L-malate] | – | Km (MEZ (Mtb malic enzyme) [2]): 18.7 ± 0.5 mM
O=C(O)/C=C/C(=O)O [fumarate] | 361% | –
O=C(O)CC(=O)C(=O)O [oxaloacetate] | – | % activity of control (inhibition) (MEZ (Mtb malic enzyme) [3]): 61%
